# Experimental data: patent publication US8697694B2, “Substituted pyridine and pyrimidine derivatives and their use in treating viral infections” (priority 2008, dated 2014)
# Test system: HCV replicon cells
# Assay: Cell-based HCV replicon assay (replicon RNA level by real time PCR, Taqman)
# Details: Hepatitis C virus, 72 h, HCV replicon cells, harvested day 3, replicon RNA by real time PCR; reported as range class; read-out: EC90 (μM) range
# Procedure: Assays Cell-Based HCV Replicon Assay
# To measure cell-based anti-HCV activity of the compounds of the present invention, replicon cells were seeded at 5000 cells/well in 96-well collagen I-coated Nunc plates in the presence of the compound of the invention. Various concentrations of a compound of the invention, typically in 10 serial 2-fold dilutions, were added to the assay mixture, the starting concentration of the compound ranging from 25 μM to 1 μM. The final concentration of DMSO was 0.5%, fetal bovine serum was 10%, in the assay media. Cells were harvested on day 3 by the addition of 1× cell lysis buffer (Ambion cat #8721). The replicon RNA level was measured using real time PCR (Taqman assay). The amplicon was located in 5B. The PCR primers were: 5B.2F, ATGGACAGGCGCCCTGA (SEQ. ID NO. 1); 5B.2R, […] (SEQ. ID NO. 2); the probe sequence was FAM-labeled CACGCCATGCGCTGCGG (SEQ. ID NO. 3). GAPDH RNA was used as endogenous control and was amplified in the same reaction as NS5B (multiplex PCR) using primers and VIC-labeled probe recommended by the manufacturer (PE Applied Biosystem). The real-time RT-PCR reactions were run on ABI PRISM 7900HT Sequence Detection System using the following program: 48′C for 30 min, 95° C. for 10 min, 40 cycles of 95° C. for 15 sec, 60° C. for 1 min. The ΔCT values (CT5B-CTGAPDH) were plotted against the concentration of test compound and fitted to the sigmoid dose-response model using GraphPad PRISM software. EC50 was defined as the concentration of inhibitor necessary to achieve ΔCT=1 over the projected baseline; EC90 the concentration necessary to achieve ΔCT=3.2 over the baseline. Alternatively, to quantitate the absolute amount of replicon RNA, a standard curve was established by including serially diluted T7 transcripts of replicon RNA in the Taqman assay. All Taqman reagents were from PE Applied Biosystems. Such an assay procedure was described in detail in e.g. Malcolm et al., Antimicrobial Agents and Chemotherapy 50: 1013-1020 (2006).
# HCV Replicon assay data for compounds of the invention that were tested was obtained using the above method. Calculated EC90 values are reported for each compound in Table I as a falling within the following ranges: […]
row,SMILES,EC90 [µM]
1,Nc1nc(Cl)c(-c2ccc3c(c2)OCO3)c(N[C@@H]2C[C@H](CO)[C@@H](O)[C@H]2O)n1 [Example 151],> 5
2,Nc1nc(Cl)c(-c2ccco2)c(N[C@@H]2C[C@H](CO)[C@@H](O)[C@H]2O)n1 [Example 152],> 5
3,Nc1nc(Cl)c(-c2cccs2)c(N[C@@H]2C[C@H](CO)[C@@H](O)[C@H]2O)n1 [Example 153],> 5
4,CC(=O)c1ccc(-c2c(Cl)nc(N)nc2N[C@@H]2C[C@H](CO)[C@@H](O)[C@H]2O)s1 [Example 154],> 5
5,Nc1nc(Cl)c(-c2ccc(C=O)s2)c(N[C@@H]2C[C@H](CO)[C@@H](O)[C@H]2O)n1 [Example 155],> 5
6,Nc1nc(Cl)c(-c2ccc(C=O)o2)c(N[C@@H]2C[C@H](CO)[C@@H](O)[C@H]2O)n1 [Example 156],> 5
7,Nc1nc(Cl)c(-c2ccccn2)c(N[C@@H]2C[C@H](CO)[C@@H](O)[C@H]2O)n1 [Example 157],> 5
8,Nc1nc(Cl)c(-c2cccc(N3CCOCC3)n2)c(N[C@@H]2C[C@H](CO)[C@@H](O)[C@H]2O)n1 [Example 158],> 5
9,Nc1nc(Cl)c(-c2cnccn2)c(N[C@@H]2C[C@H](CO)[C@@H](O)[C@H]2O)n1 [Example 159],> 5
10,Nc1nc(N[C@@H]2C[C@H](CO)[C@@H](O)[C@H]2O)c(-c2ncccn2)c(-c2ncccn2)n1 [Example 160],> 5
11,Nc1nc(Cl)c(-c2cscn2)c(N[C@@H]2C[C@H](CO)[C@@H](O)[C@H]2O)n1 [Example 161],> 5
12,Nc1nc(N[C@@H]2C[C@H](CO)[C@@H](O)[C@H]2O)c(-c2ccccn2)c(-c2ccccn2)n1 [Example 162],> 5
13,Nc1nc(Cl)c(-c2cncs2)c(N[C@@H]2C[C@H](CO)[C@@H](O)[C@H]2O)n1 [Example 163],> 5
14,Nc1nc(Cl)c(-c2cc3cc(F)ccc3o2)c(N[C@@H]2C[C@H](CO)[C@@H](O)[C@H]2O)n1 [Example 164],> 5
15,Nc1nc(Cl)c(-c2cc3cc(Cl)ccc3o2)c(N[C@@H]2C[C@H](CO)[C@@H](O)[C@H]2O)n1 [Example 165],> 5
16,CN(C)C(=O)c1ccc2oc(-c3c(Cl)nc(N)nc3N[C@@H]3C[C@H](CO)[C@@H](O)[C@H]3O)cc2c1 [Example 168],> 5
17,Nc1nc(Cl)c(-c2cc3cc(F)c(F)cc3o2)c(N[C@@H]2C[C@H](CO)[C@@H](O)[C@H]2O)n1 [Example 169],> 5
18,Nc1nc(Cl)c(-c2cc3cc(F)cc(F)c3o2)c(N[C@@H]2C[C@H](CO)[C@@H](O)[C@H]2O)n1 [Example 170],> 5
19,N#Cc1ccc2oc(-c3c(Cl)nc(N)nc3N[C@@H]3C[C@H](CO)[C@@H](O)[C@H]3O)cc2c1 [Example 171],> 5
20,CNC(=O)c1ccc2oc(-c3c(Cl)nc(N)nc3N[C@@H]3C[C@H](CO)[C@@H](O)[C@H]3O)cc2c1 [Example 172],> 5
21,NC(=O)c1ccc2oc(-c3c(Cl)nc(N)nc3N[C@@H]3C[C@H](CO)[C@@H](O)[C@H]3O)cc2c1 [Example 173],> 5
22,Nc1nc(Cl)c(-c2cc3cc(-c4ccccc4)ccc3o2)c(N[C@@H]2C[C@H](CO)[C@@H](O)[C@H]2O)n1 [Example 174],> 5
23,Nc1nc(Cl)c(-c2cc3cc(C(=O)N4CCOCC4)ccc3o2)c(N[C@@H]2C[C@H](CO)[C@@H](O)[C@H]2O)n1 [Example 175],> 5
24,CN(C)C(=O)c1ccc2cc(-c3c(Cl)nc(N)nc3N[C@@H]3C[C@H](CO)[C@@H](O)[C@H]3O)oc2c1 [Example 176],> 5
25,CNC(=O)c1ccc2cc(-c3c(Cl)nc(N)nc3N[C@@H]3C[C@H](CO)[C@@H](O)[C@H]3O)oc2c1 [Example 177],> 5

row,SMILES,EC90 [µM]
1,NC(=O)c1ccc2cc(-c3c(Cl)nc(N)nc3N[C@@H]3C[C@H](CO)[C@@H](O)[C@H]3O)oc2c1 [Example 178],> 5
2,Nc1nc(Cl)c(-c2cc3ccc(C(=O)N4CCOCC4)cc3o2)c(N[C@@H]2C[C@H](CO)[C@@H](O)[C@H]2O)n1 [Example 179],> 5
3,Nc1nc(Cl)c(-c2cc3cc(-c4nc5ccccc5o4)ccc3o2)c(N[C@@H]2C[C@H](CO)[C@@H](O)[C@H]2O)n1 [Example 180],> 5
4,COc1ccc2nc(-c3c(Cl)nc(N)nc3N[C@@H]3C[C@H](CO)[C@@H](O)[C@H]3O)sc2c1 [Example 181],< 0.5
5,CCOc1ccc2nc(-c3c(Cl)nc(N)nc3N[C@@H]3C[C@H](CO)[C@@H](O)[C@H]3O)sc2c1 [Example 182],< 0.5
6,Nc1nc(Cl)c(-c2nc3c(Cl)cccc3s2)c(N[C@@H]2C[C@H](CO)[C@@H](O)[C@H]2O)n1 [Example 183],0.5 to 5
7,CC1(C)O[C@@H]2[C@@H](CO)C[C@@H](Nc3nc(N)nc(Cl)c3-c3nc4ccccc4s3)[C@@H]2O1 [Example 184],< 0.5
8,CC1(C)O[C@@H]2[C@@H](CO)C[C@@H](Nc3nc(N)nc(-c4nc5c(F)cc(F)cc5s4)c3-c3nc4c(F)cc(F)cc4s3)[C@@H]2O1 [Example 185],> 5
9,CC1(C)O[C@@H]2[C@@H](CO)C[C@@H](Nc3nc(N)nc(Cl)c3-c3nc4c(F)cc(F)cc4s3)[C@@H]2O1 [Example 186],0.5 to 5
10,Nc1nc(Cl)c(-c2nc3ccc(Cl)cc3s2)c(N[C@@H]2C[C@H](CO)[C@@H](O)[C@H]2O)n1 [Example 188],> 5
11,Nc1nc(Cl)c(-c2nc3c(F)cc(F)cc3s2)c(N[C@@H]2C[C@H](CO)[C@@H](O)[C@H]2O)n1 [Example 189],0.5 to 5
12,Cc1ccc2nc(-c3c(Cl)nc(N)nc3N[C@@H]3C[C@H](CO)[C@H]4OC(C)(C)O[C@H]43)oc2c1 [Example 190],> 5
13,Cc1ccc2nc(-c3c(Cl)nc(N)nc3N[C@@H]3C[C@H](CO)[C@@H](O)[C@H]3O)oc2c1 [Example 191],0.5 to 5
14,Cc1ccc2oc(-c3c(Cl)nc(N)nc3N[C@@H]3C[C@H](CO)[C@H]4OC(C)(C)O[C@H]43)nc2c1 [Example 192],> 5
15,Cc1ccc2oc(-c3c(Cl)nc(N)nc3N[C@@H]3C[C@H](CO)[C@@H](O)[C@H]3O)nc2c1 [Example 193],> 5
16,CNc1ccc2sc(-c3c(Cl)nc(N)nc3N[C@@H]3C[C@H](CO)[C@@H](O)[C@H]3O)nc2c1 [Example 194],< 0.5
17,CCOc1ccc2nc(-c3c(Cl)nc(N)nc3N[C@@H]3C[C@H](CO)[C@H]4OC(C)(C)O[C@H]43)sc2c1 [Example 195],< 0.5
18,CNc1ccc2nc(-c3c(Cl)nc(N)nc3N[C@@H]3C[C@H](CO)[C@@H](O)[C@H]3O)sc2c1 [Example 196],< 0.5
19,CCCOc1ccc2nc(-c3c(Cl)nc(N)nc3N[C@@H]3C[C@H](CO)[C@@H](O)[C@H]3O)sc2c1 [Example 197],< 0.5
20,CC1(C)O[C@@H]2[C@@H](CO)C[C@@H](Nc3nc(N)nc(Cl)c3-c3nc4ccc(OCc5ccccc5)cc4s3)[C@@H]2O1 [Example 198],> 5
21,Nc1nc(Cl)c(-c2nc3ccc(OCc4ccccc4)cc3s2)c(N[C@@H]2C[C@H](CO)[C@@H](O)[C@H]2O)n1 [Example 199],> 5
22,CN(C)c1ccc2sc(-c3c(Cl)nc(N)nc3N[C@@H]3C[C@H](CO)[C@@H](O)[C@H]3O)nc2c1 [Example 200],< 0.5
23,COCCNc1nc(Cl)c(-c2nc3ccccc3s2)c(N[C@@H]2C[C@H](CO)[C@@H](O)[C@H]2O)n1 [Example 201],< 0.5
24,COCCN(C)c1nc(Cl)c(-c2nc3ccccc3s2)c(N[C@@H]2C[C@H](CO)[C@@H](O)[C@H]2O)n1 [Example 202],0.5 to 5

# Same assay, conditions: Hepatitis C virus, 72 h, HCV replicon cells, harvested on day 3, replicon RNA by real time PCR; calculated EC90 reported as range class; read-out: EC90 (μM) range
row,SMILES,EC90 [µM]
1,CCOCCNc1nc(C)c(-c2nc(C)c(C)s2)c(N[C@@H]2C[C@H](CO)[C@@H](O)[C@H]2O)n1 [Example 137],0.5 to 5
2,CCOCCNc1nc(C)c(-c2cc3cc(C(F)(F)F)ncc3o2)c(N[C@@H]2C[C@H](CO)[C@@H](O)[C@H]2O)n1 [Example 138],< 0.5
3,COCCNc1nc(C)c(-c2cc3cc(C(F)(F)F)ncc3o2)c(N[C@@H]2C[C@H](CO)[C@@H](O)[C@H]2O)n1 [Example 139],0.5 to 5
4,Cc1nc(NCC(F)(F)F)nc(N[C@@H]2C[C@H](CO)[C@H]3OC(C)(C)O[C@H]32)c1-c1cc2cc(C(F)(F)F)ncc2o1 [Example 140],0.5 to 5
5,Cc1nc(NCC2CC2)nc(N[C@@H]2C[C@H](CO)[C@H]3OC(C)(C)O[C@H]32)c1-c1cc2cc(C(F)(F)F)ncc2o1 [Example 141],0.5 to 5
6,Cc1nc(NCC(F)(F)F)nc(N[C@@H]2C[C@H](CO)[C@@H](O)[C@H]2O)c1-c1cc2cc(C(F)(F)F)ncc2o1 [Example 142],0.5 to 5
7,Cc1nc(NCC2CC2)nc(N[C@@H]2C[C@H](CO)[C@@H](O)[C@H]2O)c1-c1cc2cc(C(F)(F)F)ncc2o1 [Example 143],0.5 to 5
